According to US10563263B2, “Genetic polymorphisms associated with statin response and cardiovascular diseases, methods of detection and uses thereof” (CELERA CORPORATION, priority 2010, dated 2020):

Tested on: revascularization, unstable angina requiring hospitalization, MI, all causes of death, or stroke
Assay: PROVE IT-TIMI 22: SNP by treatment interaction (high-dose atorvastatin vs standard-dose pravastatin), logistic regression (synergy index), primary composite endpoint
Type: in vivo, human
Conditions: atorvastatin vs pravastatin; for OR (SNP by treatment interaction, logistic regression): PROVE-IT; for OR: PROVEIT

CC(C)c1c(C(=O)Nc2ccccc2)c(-c2ccccc2)c(-c2ccc(F)cc2)n1CC[C@@H](O)C[C@@H](O)CC(=O)O [Atorvastatin, atorvastatin]
OR (SNP by treatment interaction, logistic regression) (rs992695, Imputed, allele C (A1), model DOM, NMISS 442): 1.216 | OR (SNP by treatment interaction, logistic regression) (rs9866421, Genotyped, allele C (A1), model REC, NMISS 443): 0.5895 | OR (SNP by treatment interaction, logistic regression) (rs9881685, Imputed, allele A (A1), model ADD, NMISS 440): 1.041 | OR (SNP by treatment interaction, logistic regression) (rs9881685, Imputed, allele A (A1), model DOM, NMISS 440): 1.041 | OR (SNP by treatment interaction, logistic regression) (rs9936999, Imputed, allele G (A1), model DOM, NMISS 266): 0.7758 | OR (marker rs2574, cohort, model rec, End-point CVD): 1.62 | OR (marker rs7508, caseonly, model dom, End-point CHD): 1.65 | OR (marker rs198464, cohort, model rec, End-point CHD): 1.44 | OR (marker rs198476, caseonly, model rec, End-point CHD): 1.85 | OR (marker rs264122, cohort, model dom, End-point CHD): 0.72 | OR (marker rs271046, caseonly, model rec, End-point CVD): 0.68 | OR (marker rs494111, caseonly, model rec, End-point CHD): 0.44 | OR (marker rs498657, caseonly, model add, End-point CHD): 1.57 | OR (marker rs619825, caseonly, model rec, End-point CHD): 0.40 | OR (marker rs646749, caseonly, model rec, End-point CHD): 0.40 | OR (marker rs694780, caseonly, model rec, End-point CHD): 0.40 | OR (marker rs892162, caseonly, model rec, End-point CHD): 0.64 | OR (marker rs974950, cohort, model dom, End-point CVD): 0.64 | OR (marker rs996022, caseonly, model rec, End-point CHD): 0.41 | OR (marker rs1003322, caseonly, model dom, End-point CHD): 1.41 | OR (marker rs1009748, cohort, model add, End-point CVD): 1.43 | OR (marker rs1136046, caseonly, model add, End-point CVD): 1.48 | OR (marker rs1190706, cohort, model dom, End-point CVD): 0.76 | OR (marker rs1266489, cohort, model dom, End-point CVD): 0.67 | OR (marker rs1336400, cohort, model dom, End-point CHD): 1.46 | OR (marker rs1344081, caseonly, model dom, End-point CVD): 1.31 | OR (marker rs1450092, caseonly, model add, End-point CHD): 0.81 | OR (marker rs1524962, caseonly, model add, End-point CHD): 0.80 | OR (marker rs1566221, cohort, model add, End-point CHD): 0.68 | OR (marker rs1727746, cohort, model dom, End-point CVD): 1.30 | OR (marker rs1798093, cohort, model rec, End-point CHD): 2.00 | OR (marker rs1942876, caseonly, model rec, End-point CHD): 0.41 | OR (marker rs2011318, caseonly, model add, End-point CHD): 0.63 | OR (marker rs2060022, caseonly, model rec, End-point CVD): 0.72 | OR (marker rs2108425, cohort, model dom, End-point CHD): 0.77 | OR (marker rs2110564, cohort, model dom, End-point CVD): 0.60 | OR (marker rs2113334, caseonly, model rec, End-point CVD): 0.29 | OR (marker rs2327412, cohort, model add, End-point CVD): 1.38 | OR (marker rs2505039, cohort, model add, End-point CHD): 0.84 | OR (marker rs2588350, cohort, model add, End-point CVD): 0.82 | OR (marker rs2648694, cohort, model rec, End-point CVD): 1.72 | OR (marker rs2655222, caseonly, model rec, End-point CHD): 0.23 | OR (marker rs2657940, caseonly, model add, End-point CHD): 1.20 | OR (marker rs2993156, caseonly, model dom, End-point CVD): 0.75 | OR (marker rs3763978, cohort, model add, End-point CVD): 0.84 | OR (marker rs4038018, caseonly, model dom, End-point CHD): 0.76 | OR (marker rs4240808, caseonly, model rec, End-point CVD): 0.56 | OR (marker rs4242281, caseonly, model rec, End-point CVD): 2.08 | OR (marker rs4420312, caseonly, model dom, End-point CHD): 0.59 | OR (marker rs4472926, caseonly, model dom, End-point CHD): 0.53 | OR (marker rs4660234, cohort, model dom, End-point CHD): 1.45 | OR (marker rs4787415, caseonly, model rec, End-point CHD): 0.62 | OR (marker rs4807536, caseonly, model dom, End-point CVD): 1.53 | OR (marker rs4836745, caseonly, model dom, End-point CVD): 0.65 | OR (marker rs4870109, caseonly, model rec, End-point CVD): 1.97 | OR (marker rs6427807, cohort, model dom, End-point CVD): 0.66 | OR (marker rs6539231, caseonly, model dom, End-point CVD): 0.68 | OR (marker rs6563805, caseonly, model add, End-point CHD): 0.53 | OR (marker rs6585412, cohort, model dom, End-point CVD): 1.39 | OR (marker rs6685920, cohort, model dom, End-point CVD): 1.45 | OR (marker rs6998016, caseonly, model rec, End-point CHD): 6.19 | OR (marker rs7018577, caseonly, model dom, End-point CHD): 1.44 | OR (marker rs7070244, caseonly, model add, End-point CVD): 1.30 | OR (marker rs7078016, cohort, model dom, End-point CVD): 1.41 | OR (marker rs7222186, caseonly, model dom, End-point CHD): 0.50 | OR (marker rs7276749, cohort, model dom, End-point CVD): 0.45 | OR (marker rs7332076, caseonly, model rec, End-point CVD): 2.40 | OR (marker rs7338174, caseonly, model dom, End-point CHD): 2.50 | OR (marker rs7449527, caseonly, model dom, End-point CHD): 1.53 | OR (marker rs7710039, caseonly, model dom, End-point CVD): 0.70 | OR (marker rs7839562, caseonly, model dom, End-point CHD): 1.54 | OR (marker rs7916629, caseonly, model rec, End-point CVD): 2.11 | OR (marker rs7918692, caseonly, model dom, End-point CVD): 1.48 | OR (marker rs7959965, caseonly, model add, End-point CVD): 0.74 | OR (marker rs8129810, cohort, model dom, End-point CVD): 0.45 | OR (marker rs9478241, caseonly, model rec, End-point CVD): 2.08 | OR (marker rs9914580, caseonly, model dom, End-point CHD): 0.51 | OR (marker rs10012485, cohort, model dom, End-point CVD): 0.54 | OR (marker rs10497883, caseonly, model add, End-point CHD): 0.68 | OR (marker rs10518335, caseonly, model dom, End-point CVD): 0.55 | OR (marker rs10774580, caseonly, model dom, End-point CHD): 0.63 | OR (marker rs10945874, cohort, model add, End-point CVD): 1.72 | OR (marker rs11138314, cohort, model add, End-point CHD): 0.64 | OR (marker rs11585647, caseonly, model dom, End-point CVD): 0.49 | OR (marker rs11721179, caseonly, model dom, End-point CVD): 0.64 | OR (marker rs11734256, cohort, model rec, End-point CVD): 0.57 | OR (marker rs12048902, caseonly, model add, End-point CVD): 0.72 | OR (marker rs12341095, cohort, model rec, End-point CHD): 1.63 | OR (marker rs12646525, cohort, model dom, End-point CVD): 0.59 | OR (marker rs12679254, caseonly, model dom, End-point CVD): 0.79 | OR (marker rs12817873, cohort, model add, End-point CVD): 0.85 | OR (marker rs13107334, cohort, model dom, End-point CVD): 0.53 | OR (marker rs13126170, caseonly, model dom, End-point CVD): 0.53
